The experiment relates to primary human bronchial epithelial cells (HBECs). Description: ALI differentiation of HBECs with IL-13, immunofluorescence/histology readout. Type of experiment: cell-based. The conditions noted are these: IL-13 treatment during ALI differentiation, day 14, 1 ng/mL. The method, then:
FIG. 14A illustrates an experimental scheme of culturing the undifferentiated basal cells known as primary human bronchial epithelial cells (HBECs) at the air-liquid interface in the presence or absence of IL-13 and the perturbagens. […] Pseudostratified airway epithelium was formed by day 14 of ALI differentiation in the presence of 1 ng/mL of […]. Total mucus (AB/PAS), goblet cells (Muc5ac^+), and ciliated cells (acetyl α-tubulin^+) were visualized via immunofluorescence or histology. For histology analysis, the differentiated HBECs on day 14 of ALI were stained with AB/PAS, Muc5ac, and acetyl α-tubulin. […] Immunofluorescence allows for a top down view of the most apical layer of cells, while histology presents a cross-section of the pseudostratified epithelium and is amenable for image quantification.
Using scRNA-seq data, Compound B1 was predicted to inhibit goblet cells and promote club cells within the top 1.2% of compounds of the intervention library. […] Goblet and club cells were assessed by Muc5ac and Scgblal primers, respectively. […] Goblet and ciliated cells were assessed by Muc5ac and Foxj1 primers, respectively. […]
Pseudostratified airway epithelium was formed by day 14 of ALI differentiation. […] In addition, qPCR of ciliated (Foxj1) and goblet (Muc5ac) marker expression was used as a sensitive and quantitative readout of epithelial cell type distribution. […]

In the case of “IL-13: inflammatory signaling cytokine (R&D) used to induce goblet cell hyperplasia”, the “ciliated cells (acetyl α-tubulin+)” value was “reduces ciliated cells” and the “goblet cells (Muc5ac+), total mucus (AB/PAS)” value is listed as “induces goblet cell hyperplasia”.

The record behind these values is patent US20220399129A1, “SYSTEMS AND METHODS FOR TERRAFORMING” (Flagship Pioneering Innovations VI, LLC, priority 2021, published 2022).
